Counter-ions that a name gives are not always drawn.
Target: T1, full length SGK1 (Homo sapiens, UniProt O00141)
T1 construct: 125 μM full length SGK1 (Life Technologies Part #PR7358A); purchased Life Technologies PR7358A
T1 sequence (O00141 1-431): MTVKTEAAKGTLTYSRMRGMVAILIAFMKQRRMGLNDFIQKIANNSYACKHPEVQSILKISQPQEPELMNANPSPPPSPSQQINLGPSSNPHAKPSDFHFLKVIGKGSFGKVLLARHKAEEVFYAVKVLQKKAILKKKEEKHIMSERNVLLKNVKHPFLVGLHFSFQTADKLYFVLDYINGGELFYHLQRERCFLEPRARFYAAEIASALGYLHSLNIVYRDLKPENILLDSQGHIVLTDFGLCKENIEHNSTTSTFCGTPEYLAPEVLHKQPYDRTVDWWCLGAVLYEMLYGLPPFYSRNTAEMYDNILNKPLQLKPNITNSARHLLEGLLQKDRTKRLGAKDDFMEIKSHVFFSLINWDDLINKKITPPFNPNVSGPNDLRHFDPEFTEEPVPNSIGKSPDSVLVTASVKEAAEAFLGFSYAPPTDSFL
Experiment: SGK1 inhibition Assay A (Caliper LabChip electrophoretic separation of fluorescent peptide substrate and phosphorylated product)
Format: biochemical
Conditions: Assay A; 20 μM ATP, 40 min incubation; read-out: SGK1 IC50

IC50 | SMILES
25 nM | NC(=O)c1ccc(-c2cc(N3CCC[C@@H](NC(=O)c4sc5ccccc5c4OC4CNC4)C3)c3c(N)ncnn23)cn1 [Example 675, (R)-5-(4-amino-5-(3-(3-(azetidin-3-yloxy)benzo[b]thiophene-2-carboxamido)piperidin-1-yl)pyrrolo[2,1-f][1,2,4]triazin-7-yl)picolinamide]
21 nM | CNc1cccc(C(=O)N[C@@H]2CCCN(c3cc(C4=CCN(C(C)=O)C4)n4ncnc(N)c34)C2)n1 [Example 778, (R)-N-(1-(7-(1-acetyl-2,5-dihydro-1H-pyrrol-3-yl)-4-aminopyrrolo[2,1-f][1,2,4]triazin-5-yl)piperidin-3-yl)-6-(methylamino)picolinamide]
193 nM | N=c1ccc(-c2cc(N3CCC[C@@H](NC(=O)c4ccc(Cl)s4)C3)c3c(N)ncnn23)cn1C(F)F [Example 683]
18 nM | COC(=O)N1CC=C(c2cc(N3CCC[C@@H](NC(=O)c4sc5ccccc5c4OC4CCN(C)CC4)C3)c3c(N)ncnn23)C1 [Example 658, methyl (R)-3-(4-amino-5-(3-(3-((1-methylpiperidin-4-yl)oxy)benzo[b]thiophene-2-carboxamido)piperidin-1-yl)pyrrolo[2,1-f][1,2,4]triazin-7-yl)-2,5-dihydro-1H-pyrrole-1-carboxylate]
7 nM | CC(=O)N1CC=C(c2cc(N3CCCC(NC(=O)c4sc(Cl)cc4OC4CC5CC4CN5C(C)C)C3)c3c(N)ncnn23)C1 (single isomer, unassigned) [Example 611]
62 nM | CC(=O)N1CC=C(c2cc(N3CCC[C@@H](NC(=O)c4cccc(N5CC(S(C)(=O)=O)C5)n4)C3)c3c(N)ncnn23)C1 [Example 764, (R)-N-(1-(7-(1-acetyl-2,5-dihydro-1H-pyrrol-3-yl)-4-aminopyrrolo[2,1-f][1,2,4]triazin-5-yl)piperidin-3-yl)-6-(3-(methylsulfonyl)azetidin-1-yl)picolinamide]
9 nM | CC(=O)N1CC=C(c2cc(N3CCC[C@@H](NC(=O)c4sc5ccccc5c4OC4CCNCC4)C3)c3c(N)ncnn23)C1 [Example 655, (R)—N-(1-(7-(1-acetyl-2,5-dihydro-1H-pyrrol-3-yl)-4-aminopyrrolo[2,1-f][1,2,4]triazin-5-yl)piperidin-3-yl)-3-(piperidin-4-yloxy)benzo[b]thiophene-2-carboxamide]
9 nM | CC(=O)N1CC=C(c2cc(N3CCC[C@@H](NC(=O)c4cccc(N5C[C@H]6CC[C@@H](C5)N6)n4)C3)c3c(N)ncnn23)C1 [Example 814, N—((R)-1-(7-(1-acetyl-2,5-dihydro-1H-pyrrol-3-yl)-4-aminopyrrolo[2,1-f][1,2,4]triazin-5-yl)piperidin-3-yl)-6-((1R,5S)-3,8-diazabicyclo[3.2.1]octan-3-yl)picolinamide]
5 nM | CC(=O)N1CC=C(c2cc(N3CCC[C@@H](NC(=O)c4csc(C)c4)C3)c3c(N)ncnn23)C1 [Example 720, (R)-N-(1-(7-(1-acetyl-2,5-dihydro-1H-pyrrol-3-yl)-4-aminopyrrolo[2,1-f][1,2,4]triazin-5-yl)piperidin-3-yl)-5-methylthiophene-3-carboxamide]
57 nM | CC(=O)N1CC=C(c2cc(N3CCC[C@@H](NC(=O)c4ccnc(OCCN(C)C)c4)C3)c3c(N)ncnn23)C1 [Example 706, (R)-N-(1-(7-(1-acetyl-2,5-dihydro-1H-pyrrol-3-yl)-4-aminopyrrolo[2,1-f][1,2,4]triazin-5-yl)piperidin-3-yl)-2-(2-(dimethylamino)ethoxy) isonicotinamide]
39 nM | CC(=O)N1CC=C(c2cc(N3CCC[C@@H](NC(=O)c4ccnc(N(C)C)c4)C3)c3c(N)ncnn23)C1 [Example 717]
8 nM | Nc1ncnn2c(C3=CCN(C(=O)C4CCCCO4)C3)cc(N3CCC[C@@H](NC(=O)c4ccc(Cl)s4)C3)c12 (stereo partly drawn) [Example 897, N-((3R)-1-(4-amino-7-(1-(tetrahydro-2H-pyran-2-carbony1)-2,5-dihydro-1H-pyrrol-3-y1)pyrrolo[2,1-f][1,2,4]triazin-5-yl)piperidin-3-y1)-5-chlorothiophene-2-carboxamide]

Further lines, the molecule ahead of its results:

SMILES | IC50
CC(=O)N1CC=C(c2cc(N3CCC[C@@H](NC(=O)c4sc(C5CC5)cc4OC4CCNCC4)C3)c3c(N)ncnn23)C1 [Example 376E, (R)—N-(1-(7-(1-acetyl-2,5-dihydro-1H-pyrrol-3-yl)-4-aminopyrrolo[2,1-f][1,2,4]triazin-5-yl)piperidin-3-yl)-5-cyclopropyl-3-(piperidin-4-yloxy)thiophene-2-carboxamide] | 3 nM
N#Cc1ncn(-c2ccc(-c3cc(N4CCC[C@@H](NC(=O)c5ccc(Cl)s5)C4)c4c(N)ncnn34)cn2)n1 [Example 250, (R)-N-(1-(4-amino-7-(6-(3-cyano-1H-1,2,4-triazol-1-yl)pyridin-3-yl)pyrrolo[2,1-f][1,2,4]triazin-5-yl)piperidin-3-yl)-5-chlorothiophone-2-carboxamide, TFA] | 3 nM
CN(C)CCOc1cc(C2CC2)sc1C(=O)N[C@@H]1CCCN(c2cc(-c3ccc(C(N)=O)c(F)c3)n3ncnc(N)c23)C1 [Example 373, (R)-N-(1-(4-amino-7-(4-carbamoyl-3-fluorophenyl)pyrrolo[2,1-f][1,2,4]triazin-5-yl)piperidin-3-yl)-5-cyclopropyl-3-(2-(dimethylamino)ethoxy) thiophene-2-carboxamide] | 2 nM
CS(=O)(=O)c1ccc(-c2cc(N3CCC[C@@H](NC(=O)C4CC5(CCC5)C4)C3)c3c(N)ncnn23)cc1 [Example 29, (R)-N-(1-(4-amino-7-(4-(methylsulfonyl)phenyl)pyrrolo [2,1-f][1,2,4]triazin-5-yl)piperidin-3-yl)spiro[3.3]heptane-2-carboxamide] | 181 nM
CN(C(=O)c1ccccc1)[C@@H]1CCCN(c2cc(-c3ccc(S(C)(=O)=O)cc3)n3ncnc(N)c23)C1 [Example 123, (R)—N-(1-(4-amino-7-(4-(methylsulfonyl)phenyl)pyrrolo[2,1-f][1,2,4]triazin-5-yl)piperidin-3-yl)-N-methylbenzamide] | 606 nM
CC(=O)N1CC=C(c2cc(N3CCC[C@@H](NC(=O)c4cc(N5CCN(C)CC5)c(C)s4)C3)c3c(N)ncnn23)C1 [Example 270, (R)—N-(1-(7-(1-acetyl-2,5-dihydro-1H-pyrrol-3-yl)-4-aminopyrrolo[2,1-f][1,2,4]triazin-5-yl)piperidin-3-yl)-5-methyl-4-(4-methylpiperazin-1-yl)thiophene-2-carboxamide] | 49 nM
Nc1ncnn2c(C3=CCN(C(=O)C4(F)CC4)C3)cc(N3CCC[C@@H](NC(=O)c4sc(Cl)cc4OCCN4CCOCC4)C3)c12 [Example 263, (R)-N-(1-(4-amino-7-(1-(1-fluorocyclopropane-1-carbonyl)-2,5-dihydro-1H-pyrrol-3-yl)pyrrolo [2,1-f][1,2,4]triazin-5-yl)piperidin-3-yl)-5-chloro-3-(2-morpholinoethoxy)thiopbene-2-carboxamide] | 12 nM
COC(=O)NCCOc1cc(C(F)F)sc1C(=O)N[C@@H]1CCCN(c2cc(-c3cncnc3)n3ncnc(N)c23)C1 [Example 429, methyl (R)-(2-((2-((1-(4-amino-7-(pyrimidin-5-yl)pyrrolo[2,1-f][1,2,4]triazin-5-yl)piperidin-3-yl)carbamoyl)-5-(difluoromethyl)thiophen-3-yl)oxy)ethyl)carbamate] | 60 nM
CC(=O)N1CC=C(c2cc(N3CCC[C@@H](NC(=O)c4sc(Cl)cc4OC4CC(N(C)C)C4)C3)c3c(N)ncnn23)C1 (stereo partly drawn) [Example 599, (R)-N-(1-(7-(1-acetyl-2,5-dihydro-1H-pyrrol-3-yl)-4-aminopyrrolo[2,1-f][1,2,4]triazin-5-yl)piperidin-3-y1)-5-chloro-3-(3-(dimethylamino)cyclobutoxy)thiophene-2-carboxamide] | 8 nM
Nc1ncnn2c(C3=CCN(C(=O)[C@H]4C[C@@H]4F)C3)cc(N3CCC[C@@H](NC(=O)c4sc(Cl)cc4OCCN4CCOCC4)C3)c12 (relative stereo) [Example 262, rel-N-((R)-1-(4-amino-7-(1-((1R,2S)-2-fluorocyclopropane-1-carbonyl)-2,5-dihydro-1H-pyrrol-3-yl)pyrrolo[2,1-f][1,2,4]triazin-5-yl)piperidin-3-yl)-5-chloro-3-(2-morpholinoethoxy)thiophene-2-carboxamide] | 18 nM
CS(=O)(=O)c1ccc(-c2cc(N3CCC[C@@H](NC(=O)c4cccc(Br)c4)C3)c3c(N)ncnn23)cc1 [Example 85, (R)-N-(1-(4-amino-7-(4-(methylsulfonyl)phenyl)pyrrolo[2,1-f][1,2,4]triazin-5-yl)piperidin-3-yl)-3-bromobenzamide, TFA] | 27 nM
CC(=O)N1CC=C(c2cc(N3CCC[C@@H](NC(=O)c4sc(C(F)F)cc4OC4CCNCC4)C3)c3c(N)ncnn23)C1 [Example 347, (R)—N-(1-(7-(1-acetyl-2,5-dihydro-1H-pyrrol-3-yl)-4-aminopyrrolo[2,1-f][1,2,4]triazin-5-yl)piperidin-3-yl)-5-(difluoromethyl)-3-(piperidin-4-yloxy)thiophene-2-carboxamide] | 9 nM
CC(C)n1cc(-c2cc(N3CCC[C@@H](NC(=O)c4cccc(N5CCN(C)CC5)n4)C3)c3c(N)ncnn23)ccc1=O [Example 792, (R)-N-(1-(4-amino-7-(1-isopropyl-6-oxo-1,6-dihydropyridin-3-yl)pyrrolo[2,1-f][1,2,4]triazin-5-yl)piperidin-3-yl)-6-(4-methylpiperazin-1-yl)picolinamide] | 29 nM

Source: patent US20260250290A1 (BRISTOL-MYERS SQUIBB COMPANY, priority 2023, published 2026)
